Test results taken from patent US20250034171A1, “IMIDAZOPYRIDINE AMIDES AND RELATED COMPOUNDS FOR USE IN THE TREATMENT OF BACTERIAL INFECTIONS” (priority 2021, published 2025).
Values after ≈ are worked out from the molar mass of the structure shown. Where two headings read alike, the source gives them in different places.

Columns and labels:
[1] = test system: Mycobacterium tuberculosis strain H37Rv; assay: Test 2: MIC determination against M. tuberculosis, resazurin fluorescence; format: cell-based; conditions: Test 2, M. tuberculosis H37Rv; for MIC90: read-out: Bacterial activity MIC90; for IC50: read-out: Bacterial activity pMIC50 (converted)
[2] = test system: Salmonella typhimurium Ames II Mixed Strains (TA7001-TA7006) and TA98; assay: Genotoxicity assay (AmesIIb mutagenicity test); format: cell-based; further: key: an AmesIIb score of 1 shows no genotoxicity signals
Description: The aim is to evaluate compounds (and/or their metabolites) for their ability to induce reverse mutations in a gene of histidine-requiring Salmonella typhimurium strains to produce histidine-independent strains of these bacteria, in the absence and in the presence of a mammalian metabolic activation system.
Point mutations were made in the histidine (His) operon in Salmonella typhimurium, rendering the bacteria incapable of producing histidine. These single base substitutions are positioned at strategic points within the His gene, resulting in his-organisms that cannot grow unless histidine is supplied. When a mutagenic event occurs, base substitutions within the His gene then cause the reversion of the his-Ames II™ strains to His.
A chemical's mutagenic potential is assessed by exposing these his-organisms to varying concentrations of chemical and selecting for the reversion event. Medium lacking histidine is used for this selection which allows only those cells that have undergone the his- to His reversion to survive and grow.
The assay may be performed using a kit and instructions from Xenometric. The two strains provided in the Xenometric kit are the Ames II™ Mixed Strains and TA98. The Ames II™ Mixed Strains contains an equimolar mixture of the Ames II™ TA7001-TA7006 strains. Individually, these strains are designed to revert by only one specific base-pair substitution out of six possible changes. Thus, when mixed, all six base substitution mutations can be represented in one culture. This kit also contains TA98 for the detection of frameshift mutations.

[3] = Metabolic stability in liver microsomes (intrinsic clearance); format: in vitro ADME; conditions: for half-life at 1 µM / microsomal CLint at 1 µM: microsomes; for Metabolic Stability (liver microsome intrinsic clearance) Clearance (mouse, μl/min./mg protein) / Metabolic Stability Half life (mouse, min.): mouse liver microsomes
Protocol: The test compound was incubated under the generic condition (0.5 mg/ml microsomal protein, 1 mM NADPH, 1 mM MgCl2, and 0.1 M phosphate buffer, pH 7.4, 37° C.) at a defined substrate concentration (typically 1 μM) in liver microsomes of selected species across a time course (typically 0, 5, 10, 20, 40 and 60 minutes) at Cyprotex (Cheshire, UK). The liver microsomes, buffer and test compound will be pre-incubated for 5 minutes. The addition of the co-factor NADPH will initiate the reaction and the reaction was terminated by addition of acetonitrile. The samples were centrifuged prior to analysis by LC-MS/MS analysis. The relative amount of parent compound remaining in the active incubations vs. the control incubations (t=0 mins) for each compound was measured by peak area comparison. The in vitro metabolic half-life (t1/2) was calculated using the slope of the log-linear regression from the percentage parent compound remaining versus time relationship (κ), The in vitro intrinsic clearance (Cl^int) (μl/min/mg microsomal protein) was calculated using the in vitro metabolic half-life, incubation volume and the weight of microsomal protein in the incubation.

[4] = Mycobacterium tuberculosis, H37RV
[5] = mouse, pH 7.4, Metabolic Stability Half life (mouse, min.)
[6] = mouse, pH 7.4, mouse liver microsomes, read-out: Metabolic Stability (liver microsome intrinsic clearance) Clearance (mouse, μl/min./mg protein)
[7] = human, pH 7.4, Metabolic Stability Half life (human, min.)
[8] = human, pH 7.4, human liver microsomes, read-out: Metabolic Stability (liver microsome intrinsic clearance) Clearance (human, μl/min./mg protein)

Compound | MIC90 [1, 4] [µM] | IC50 [1, 4] [pM] | GeneTox AmesIIb Score ([2]; Salmonella typhimurium) | half-life at 1 µM [3, 5] [min] | microsomal CLint at 1 µM [3, 6] [µL/min/mg] | half-life at 1 µM [3, 7] [min] | microsomal CLint at 1 µM [3, 8] [µL/min/mg] | Bacterial activity pMIC50 [1] | MIC90 [1] [µM] | GeneTox AmesIIb Score [2] | Metabolic Stability (liver microsome intrinsic clearance) Clearance (human, μl/min./mg protein) ([3]; human liver microsomes) [μl/min./mg protein] | Metabolic Stability Half life (human, min.) ([3]; human liver microsomes) [min] | Metabolic Stability (liver microsome intrinsic clearance) Clearance (mouse, μl/min./mg protein) [3] [μl/min./mg protein] | Metabolic Stability Half life (mouse, min.) [3] [min]
CCc1nc2ncc(C)cn2c1C(=O)NCc1ccc(-c2nc3n(n2)CCC(C)(C)C3)cc1 [Compound 144] | 0.05 (≈ 0.0222 µg/mL) | 12600 | 1 | > 180 | < 7.7 |  |  |  |  |  |  |  |  | 
CCc1cnc2nc(CC)c(C(=O)NCc3ccc(-c4cn5c(n4)C[C@H](C(F)(F)F)CC5)cc3)n2c1 [Compound 151] | 0.054 (≈ 0.0268 µg/mL) | 18200 | 1 | 22.2 | 62.5 | 4.3 | 326 |  |  |  |  |  |  | 
CCc1cnc2nc(CC)c(C(=O)NCc3ccc(-c4cn5c(n4)C[C@@H](C(F)(F)F)CC5)cc3)n2c1 [Compound 152] | 0.088 (≈ 0.0437 µg/mL) | 23400 | 1 | 10.7 | 129 | < 4 | > 347 |  |  |  |  |  |  | 
CCc1nc2n(c1C(=O)NCc1ccc(-c3cc4n(n3)CCC(C(F)(F)F)C4)cc1)CCCC2 (stereo not shown) [Compound 179] | 0.0097 (≈ 0.00457 µg/mL) | 3310 | 1 | 25.9 | 53.5 |  |  |  |  |  |  |  |  | 
CCc1nc2ncccn2c1C(=O)NCc1ccc(-c2nc3n(n2)CC[C@@H](C2CC2)C3)cc1 [Compound 183] | 0.48 (≈ 0.212 µg/mL) | 646000 | 1 | 137 | 10.1 |  |  |  |  |  |  |  |  | 
CCc1nc2ncccn2c1C(=O)NCc1ccc(-c2nc3n(n2)CC[C@H](C2CC2)C3)cc1 [Compound 184] | 0.43 (≈ 0.19 µg/mL) | 166000 | 1 | > 180 | < 7.7 |  |  |  |  |  |  |  |  | 
CCc1nc2ncc(NC(=O)OC(C)(C)C)cn2c1C(=O)NCc1ccc(-c2nc3n(n2)CCC(C(F)(F)F)C3)cc1 (stereo not shown) [Compound 194] |  |  |  |  |  |  |  | 7.43 | 0.1 (≈ 0.0585 µg/mL) | 1 | <7.7 | >180 | <7.7 | >180
CCc1nc2nc(C)c(N(Cc3ccc(OC)cc3OC)C(=O)OC(C)(C)C)cn2c1C(=O)NCc1ccc(-c2nc3n(n2)CC[C@H](C(F)(F)F)C3)cc1 [Compound 196] |  |  |  |  |  |  |  | 7.56 | 0.067 (≈ 0.0502 µg/mL) | 1 |  |  | <7.7 | >180
